Laboratory results taken from paper PMC11836371, “Virtual fragment screening for DNA repair inhibitors in vast chemical space” (Nature Communications, 2025).
Values after ≈ are worked out from the molar mass of the structure shown. Values joined by “and” are separate entries in the source; they are usually repeats but may differ in a detail not shown here. Identical values can stand only once. Like-named read-outs stand apart in the source and are kept apart here.

Tests used:
[1] = system: A549 cells; test: Cancer cell viability assay (resazurin), A549; assay type: cell-based; settings: two independent experiments; for percentage cell viability: A549, 100 μM, 100 µM; for viability at 100 µM: Homo sapiens, A549, A549, 100 μM, read-out: percentage cell viability
Method in brief: (§1)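 Cells were exposed for 72 h at 37 °C, 5% CO2 to 11-point compound dose-response curves in 10% FBS medium. Resazurin (final 10 µg/mL) was then added for 6 h and resorufin fluorescence read (ex 544/em 595 nm). Viability relative to untreated wells; EC50 from curve fitting.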

[2] = system: BJhTERT cells; test: Cell viability assay (resazurin), BJhTERT non-transformed control; assay type: cell-based; settings: BJhTERT, 100 μM, two independent experiments
Method in brief: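 Cells in FBS-supplemented media exposed to compound for 72 h at 37 °C, 5% CO2, then resazurin added to 10 µg/mL final. Viability expressed relative to untreated control wells; EC50 derived by curve fitting.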

[3] = biological target: human OGG1 enzyme (Homo sapiens, UniProt O15527); test: OGG1 glycosylase activity assay (enzyme inhibition, APE1-coupled fluorescence); assay type: biochemical; settings: for increase of inhibitory potency compared to fragment 1: ratio of IC50 values
Sequence of human OGG1 enzyme (O15527 whole entry, the tested form may be a part): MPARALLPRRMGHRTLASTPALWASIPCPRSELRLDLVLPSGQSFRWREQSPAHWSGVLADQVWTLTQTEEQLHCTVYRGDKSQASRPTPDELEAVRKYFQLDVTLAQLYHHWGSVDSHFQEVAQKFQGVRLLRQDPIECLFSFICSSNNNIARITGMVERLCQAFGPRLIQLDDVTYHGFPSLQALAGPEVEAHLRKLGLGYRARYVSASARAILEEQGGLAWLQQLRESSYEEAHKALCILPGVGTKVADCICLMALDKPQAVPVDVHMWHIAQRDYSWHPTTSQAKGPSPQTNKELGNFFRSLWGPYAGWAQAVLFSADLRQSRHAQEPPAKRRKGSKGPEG

[4] = system: A2780 cells; test: Cancer cell viability assay (resazurin), A2780; assay type: cell-based; settings: two independent experiments; for percentage cell viability: A2780, 100 μM, 100 µM; for viability at 100 µM: Homo sapiens, A2780, A2780, 100 μM, read-out: percentage cell viability
Method in brief: as §1

[5] = Thermodynamic solubility; assay type: physicochemical; settings: for solubility thermodynamic: thermodynamic from solid
[6] = system: NF-κB activation in HEK293T pGF NF-κB cells; test: TNF-α induced NF-κB activation assay; assay type: cell-based; settings: for EC50: Homo sapiens, HEK-293T
Method in brief: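 HEK293T cells carrying NF-κB response element–GFP/luciferase reporter, in DMEM FluoroBrite with 1% dialyzed FBS, stimulated with 10 ng/mL TNF-α alongside compound (8-point 1:2 dose-response, 0.3% DMSO) for 24 h at 37 °C. GFP fluorescence (ex485/em535) gave % inhibition and IC50. Parallel CellTiterGlo viability (11-point, 1:3) with TNF-α gave EC50.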

[7] = Metabolic stability in human liver microsomes; assay type: in vitro ADME; settings: pH 7.4, intrinsic clearance
Method: Human liver microsomes were purchased from BioIVT. Metabolic stability was determined in 0.5 mg/mL human liver microsomes at a compound concentration of 1 µM in 100 mM KPO4 buffer pH 7.4 in a total incubation volume of 500 µL. The reaction was initiated by the addition of 1 mM NADPH. At various incubation times, i.e., at 0, 5, 10, 20, 40, and 60 min, a sample was withdrawn from the incubation and the reaction was terminated by the addition of cold acetonitrile with warfarin as an internal standard. The amount of parent compound remaining was analyzed by liquid chromatography coupled to triple quadrupole mass spectrometry (LC-MS/MS).

[8] = Figure 3B source data, three independent experiments, read-out: IC50 OGG1
[9] = NFκB activation assay, ± SD, read-out: pEC50 (converted)

Row | Structure (SMILES) | percentage cell viability [1] [%] | viability at 100 µM [1] [%] | percentage cell viability [2] [%] | OGG1 inhibition, dose-response (Figure2C) ([3]; Concentration (M) 1.93e-7) | OGG1 inhibition, dose-response (Figure2C) ([3]; Concentration (M) 3.87e-7) | OGG1 inhibition, dose-response (Figure2C) ([3]; Concentration (M) 7.73e-7) | OGG1 inhibition, dose-response (Figure2C) ([3]; Concentration (M) 1.55e-6) | OGG1 inhibition, dose-response (Figure2C) ([3]; Concentration (M) 3.09e-6) | OGG1 inhibition, dose-response (Figure2C) ([3]; Concentration (M) 6.19e-6) | OGG1 inhibition, dose-response (Figure2C) ([3]; Concentration (M) 1.24e-5) | OGG1 inhibition, dose-response (Figure2C) ([3]; Concentration (M) 2.48e-5) | OGG1 inhibition, dose-response (Figure2C) ([3]; Concentration (M) 4.95e-5) | OGG1 inhibition, dose-response (Figure2C) ([3]; Concentration (M) 9.9e-5) | IC50 [3, 8] | increase of inhibitory potency compared to fragment 1 [3] [fold] | IC50 ([3]; read-out: IC50) [nM] | percentage cell viability [4] [%] | viability at 100 µM [4] [%] | EC50 [6, 9] [µM] | microsomal CLint at 1 µM [7] [µL/min/mg] | further results
1 | Cc1nc(-c2ccc(CC(=O)Nc3noc4c3CCCC4)cc2)c(C)[nH]1 [compound 17] | 56.76 | 52.6 | 38.43 | 17.95 and 20.93 and 16.93 and 26.66 | 29.14 and 34.59 and 30.82 and 38.2 | 44.06 and 48.74 and 48.24 and 52.23 | 58.26 and 62.87 and 66.96 and 67.73 | 72.68 and 77.92 and 76.19 and 83.17 | 85.12 and 84.21 and 85.13 and 86.27 | 90.55 and 92.85 and 89.92 and 91.47 | 92.75 and 97.64 and 93.54 and 94.76 | 96.49 and 97.45 and 94.85 and 97.57 | 96.97 and 96.91 and 94.08 and 97.24 | 505 nM and 495 nM and 518 nM | > 165 | 600 | 6.29 | 5.42 | 19.1 | 23.9 | fold higher solubility than TH5487 [5]: > 600 fold and > 667 fold; solubility thermodynamic [5]: 667 µM (≈ 234 µg/mL)
2 | Cc1nc(-c2cc(F)c(CC(=O)Nc3noc4c3CCCC4)c(F)c2)c(C)[nH]1 [compound 23] | 73.95 | 60.6 | 68.66 | 9.69 and 17.93 and 10.41 and 18.5 | 29.24 and 27.63 and 28.59 and 28.11 | 53.6 and 49.32 and 48.44 and 47.84 | 59.42 and 67.01 and 59.08 and 66.62 | 78.97 and 77.03 and 76.1 and 78.52 | 89 and 85.95 and 85.06 and 85.7 | 91.41 and 94.39 and 90.13 and 92.43 | 94.22 and 97.46 and 92.46 and 96.53 | 94.91 and 98.52 and 101.44 and 105.23 | 93.34 and 96.5 and 102.87 and 104.38 | 442 nM and 646 nM and 620 nM | > 165 | 600 | 42.92 | 33.8 | 6.31 | 39.7 | solubility thermodynamic ([5]; single replicate): 16 µM (≈ 6.18 µg/mL); % inhibition of NF-κB activation (Figure3F) ([6]; Concentration 2.34e-7, single replicates): 12.9% and 24.6% and 2.1%; % inhibition of NF-κB activation (Figure3F) ([6]; Concentration 4.69e-7, single replicates): 11.9% and 16.7% and -7.9%; % inhibition of NF-κB activation (Figure3F) ([6]; Concentration 9.38e-7, single replicates): 11% and 6.8% and -9.9%; % inhibition of NF-κB activation (Figure3F) ([6]; Concentration 1.88e-6, single replicates): 11.1% and 26.6% and 2.8%; % inhibition of NF-κB activation (Figure3F) ([6]; Concentration 3.75e-6, single replicates): 21.4% and 46% and -1.3%; % inhibition of NF-κB activation (Figure3F) ([6]; Concentration 7.5e-6, single replicates): 38.5% and 60.8% and 40%; % inhibition of NF-κB activation (Figure3F) ([6]; Concentration 1.5e-5, single replicates): 56.3% and 70.5% and 50.3%; % inhibition of NF-κB activation (Figure3F) ([6]; Concentration 3e-5, single replicates): 64.4% and 84.7% and 71.9%; EC50 ([6]; inhibition of TNF-α-induced NF-κB activation, read-out: EC50): 6.3 µM
